The source of these data is PMC4998035 (International Journal of Nanomedicine, 2016).

In general, solubility refers to the concentration that dissolves in the medium under given conditions. A lower solubility goes with little dissolved substance.

Molecules are shown by their SMILES. Values after ≈ are worked out from the molar mass of the structure shown. Like-named read-outs stand apart in the source and are kept apart here.

Series [1] in a line: In vitro percutaneous permeation, vertical Franz diffusion cell. Conditions: 20% NIC solution without FK506; data not shown. It is filed as in vitro ADME, Sprague Dawley rats.
For series [2] the following is noted: in vitro; cited from earlier work.
A short description of series [3]: Solubility of FK506 in NIC solution. It is filed as physicochemical.
For series [4] the following is noted: in vivo; cited from earlier work.

Turning to `NC(=O)c1cccnc1` [NIC, nicotinamide], the “Permeation of NIC into skin” value in series [1] is on record as “easily permeate into skin”.

Consider `C=CC[C@@H]1/C=C(\C)C[C@H](C)C[C@H](OC)[C@H]2O[C@@](O)(C(=O)C(=O)N3CCCC[C@H]3C(=O)O[C@H](/C(C)=C/[C@@H]3CC[C@@H](O)[C@H](OC)C3)[C@H](C)[C@@H](O)CC1=O)[C@H](C)C[C@@H]2OC` [FK506, Tacrolimus], for which the entries for the “Immunosuppressant activity relative to cyclosporine A” value in series [2] and in series [4] were 30–100 fold and 10–20 fold, respectively. In addition, the “Solubility in 30% (w/v) NIC solution relative to that in water” value in series [3] (30% (w/v) NIC vs water) is reported as 532 fold. The compound further had a solubility at 3 days in series [3] (water (0% (w/v) NIC), 37 °C, water, thermodynamic from solid) of 0.69 ± 0.24 µg/mL (≈ 0.858 µM).
